Source: patent publication US7667031B2, “Nucleic acid base pair” (Japan Science and Technology Agency, priority 1999, dated 2010)
Several values for one entry are separate records, joined by “and”; a condition that tells them apart may be missing. Equal values may be shown once.

Columns and labels:
T7 RNA polymerase [1] = target: T1, T7 RNA polymerase (Escherichia phage T7, UniProt P00573); test: Transcription by T7 RNA polymerase in presence of rNTP, RNase T2 digestion, 2-dimension TLC (templates 1 and 3); type: biochemical; settings: for Template 1 (N = A) Measured Value / Template 3 (N = X) Measured Value: rATP, rGTP, rCTP, UTP 2 mM, rYTP 1 mM, nucleotide composition by 2-dimension TLC
Procedure: Transcription reaction in the presence of rNTP was conducted. […] ATP under the condition of rATP 2 mM, rGTP 2 mM, rCTP 2 mM, UTP 2 mM, and rYTP 1 mM, then generated full length of RNA was digested completely by RNase T2, nucleotide labeled at 3′-terminal was analyzed by 2-dimension TLC. Outline of this experiment is shown as follows.
Reaction was performed as same as in example 8. The generated RNA was isolated by gel electrophoresis. RNA was digested by 0.75 units RNase T2. Each nucleotide was separated using 2-dimension TLC and each ratio was calculated.

T7 RNA polymerase [2] = target: T1, T7 RNA polymerase; test: Transcription by T7 RNA polymerase, gel electrophoresis of generated RNA; type: biochemical; settings: for incorporation in transcription opposite G (FIG. 10): template 2 (N=G); for incorporation into the complementary strand of A in transcription (FIG. 10): template 1 (N=A); for incorporation to X in transcription (FIG. 10): template 3 (N=X)
Procedure: Similarly, a transcription reaction by RNA polymerase using DNA containing X as template was examined. Using template 1-3, promoter region on this strand was duplicated, and the transcription reaction was examined using T7 RNA polymerase by adding [α-^32P] ATP.
Template DNA 1 μM, in which promoter region has duplicated strands, and T7 RNA polymerase 2.5 units were added to a solution containing 2 mM rNTP, [α-^32P] […] The product was analyzed.

Klenow fragment [3] = target: T2, Klenow fragment (Escherichia coli, UniProt P00582); test: Primer extension reaction by Klenow fragment; type: biochemical, E. coli; parameters: Klenow fragment, which is deleted 5′-exonuclease from DNA polymerase I; purchased TAKARA; settings: 17° C.; for incorporation to the complementary strand X (primer extension, FIG. 6): template 3 1 μM
From the text: In order to examine formation of selective novel nucleic acid base pair by utilizing steric hindrance in the base pair X-Y, primer extension method of DNA and transcriptional reaction synthesizing RNA from DNA were applied. The primer extension method includes annealing template DNA oligomer with a primer oligomer, and adding DNA polymerase and 2′-deoxynucleotide-5′-triphosphate (dNTP) to extend complementary sequence of the template at 3′-terminal of the primer. Klenow fragment, which is deleted 5′-exonuclease from DNA polymerase I, one of DNA polymerase originated from E. coli, and T7 RNA polymerase, RNA polymerase originated from T7 phage, were herein used. Both enzymes are commonly used at present.
5′-terminal of the primer was labeled with ^32P using T4 polynucleotide kinase and […]. Primer labeled with ^32P (0.5 μM) and template 1 and 3 (1 μM) and various dNTP (150 μM), wherein N means base, were used for primer extension by Klenow fragment (0.2 unit/μl) at 17° C. for 30 minutes.
The thus obtained product was electrophoresed using 20% polyacrylamide 7M urea gel and analyzed by using imaging plate (Phosphoroimager analysis). In FIG. 6, left five, i.e. AG, AGC, AGT, AGY and AGCT, indicates cases using template 1, and right five indicates cases using template 3.
In order to search effect of incorporation of Y, C and T into the complementary strand of X, when two X are presented on the template, ^32P labeled primer 3 at 5′-terminal and template 4, 5, 6, 7, 8 and 9 were used for primer extension method.
5′-^32P labeled primer, template and 10× Klenow fragment buffer (TAKARA) 1 μl were added to the 0.5 ml tube, adjusted total volume to 7 μl, and annealed at 95° C. for 3 minutes, at 40° C. for 3 minutes and at 4° C. for 7 minutes. dNTP 1 μl, Klenow fragment (1 unit/ml, For Sequencing, TAKARA) 2 μl were added, adjusted to total volume to 10 μl and incubated for the fixed time at 17° C. The reaction was terminated by adding 10 M urea BPB dye 5 μl, heated at 75° C. for 5 minutes, and electrophoresed with 20% polyacrylamide gel with 7M urea gel electrophoresis. The result was analyzed using imaging plates (Phosphoroimager analysis). Single nucleotide insertion reaction is shown in FIG. 7 and primer extension reaction is shown in FIG. 6 and FIG. 9, respectively.

Klenow fragment [4] = target: T2, Klenow fragment; test: Single nucleotide insertion reaction by Klenow fragment; type: biochemical, E. coli; parameters: Klenow fragment, which is deleted 5′-exonuclease from DNA polymerase I; purchased TAKARA; settings: primer 2 1 μM, only one dNTP 159 μM, 17° C., 30 minutes; for incorporated into complementary strand of X: template 3 2 μM
Procedure: For quantitative analysis of the incorporation, same experiments were conducted by adding only DNTP (159 μM) using primer 2 (1 μM) labeled with p32 at 5′-terminal and template 1, 2 and 3 (2 μM).
The result was analyzed using imaging plates (Phosphoroimager analysis). Single nucleotide insertion reaction is shown in FIG. 7 and primer extension reaction is shown in FIG. 6 and FIG. 9, respectively.

Klenow fragment (exo+) = target: T3, Klenow fragment (exo+) (Escherichia coli, UniProt P00582); test: Single nucleotide insertion reaction using Klenow fragment (exo+); type: biochemical, E. coli; settings: 3 minutes; for rate of incorporation on dx2: template N = X2, 37° C.
T3 construct: Klenow fragment, which is deleted 5′-exonuclease from DNA polymerase I; purchased TAKARA
Procedure: Using Klenow fragment (exo^+), incorporation of dYTP on dx2 in the template (refer to example 10).
In the template, a position indicated by N was bound with base X or base X2 (for experimental) or base A (for control), and incorporation experiments of various bases were conducted. Results are shown in FIG. 12, in which lanes 1 and 2 indicate control experiments for incorporation of cytosine (C) and thymine (T) on adenine (A).
A solution containing [5′-^32P] labeled primer DNA (20-mer, […]), template DNA (35-mer, […]) and 2× Klenow fragment buffer (TAKARA) were annealed at 95° C. for 3 minutes, 40° C. for 3 minutes and 4° C. for 7 minutes. A solution of equimolar amount of 40 mM dNTP and Klenow fragment (exo^+) (2 unit/ml, For Sequencing, TAKARA) were added thereto and incubated at 37° C. for 3 minutes. […] Products were analyzed by using Phosphoroimager plate.

Klenow fragment [5] = target: T2, Klenow fragment; settings: 17° C.
Procedure: Primer 2 without labeling and template 2 were annealed, and [α-^32P] TTP and various amounts of dYTP were added thereto to find out ratio of inhibition of incorporation of [α-^32P] TTP into X by dYTP was investigated. […] As a result, when dYTP was added almost equivalent level of [α-^32P] TTP, incorporation of [α-^32P]
Primer, template and 10× Klenow fragment buffer (TAKARA) 1 μl were added to 0.5 ml tube, and total volume was adjusted to 7 μl, and annealed at 95° C. for 3 minutes, at 40° C. for 3 minutes and at 4° C. for 7 minutes. [α-^32P] TTP or [α-^32P] dCTP and dYTP were added to final concentration for each level, and Klenow fragment (1 unit/ml, For Sequencing, TAKARA) 2 μl was added, adjusted to total volume to 10 μl and incubated for the fixed time at 17° C. The reaction was terminated by adding 10 M urea BPB dye 5 μl kept at 75° C. for 5 minutes, and electrophoresed with 20% polyacrylamide gel with 7M urea gel electrophoresis. The result was analyzed using imaging plates (Phosphoroimager analysis).

[6] = primer 1 0.5 μM, dNTP 150 μM, 30 minutes

T1 sequence (P00573 whole entry): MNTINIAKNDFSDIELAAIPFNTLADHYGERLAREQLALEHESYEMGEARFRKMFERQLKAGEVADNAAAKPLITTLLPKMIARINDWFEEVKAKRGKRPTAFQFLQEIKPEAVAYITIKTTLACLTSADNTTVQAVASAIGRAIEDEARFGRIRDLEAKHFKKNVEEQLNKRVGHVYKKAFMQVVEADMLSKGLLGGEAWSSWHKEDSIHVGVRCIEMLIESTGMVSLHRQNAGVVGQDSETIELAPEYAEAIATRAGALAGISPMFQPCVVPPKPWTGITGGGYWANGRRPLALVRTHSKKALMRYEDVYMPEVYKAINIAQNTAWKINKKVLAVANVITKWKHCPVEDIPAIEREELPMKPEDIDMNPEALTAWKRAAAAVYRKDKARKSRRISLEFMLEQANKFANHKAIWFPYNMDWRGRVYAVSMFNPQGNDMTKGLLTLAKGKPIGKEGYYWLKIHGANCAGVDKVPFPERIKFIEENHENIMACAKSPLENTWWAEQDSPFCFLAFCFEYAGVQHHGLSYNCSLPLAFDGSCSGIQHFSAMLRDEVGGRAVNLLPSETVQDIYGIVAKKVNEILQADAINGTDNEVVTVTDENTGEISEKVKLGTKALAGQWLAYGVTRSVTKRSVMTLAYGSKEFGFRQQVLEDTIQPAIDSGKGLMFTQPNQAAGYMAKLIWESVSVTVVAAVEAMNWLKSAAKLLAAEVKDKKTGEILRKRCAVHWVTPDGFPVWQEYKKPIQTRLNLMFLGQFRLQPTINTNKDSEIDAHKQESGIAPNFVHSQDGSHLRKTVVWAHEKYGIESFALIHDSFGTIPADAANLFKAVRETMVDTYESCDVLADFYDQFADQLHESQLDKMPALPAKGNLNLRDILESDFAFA
T3 sequence (P00582 324-928): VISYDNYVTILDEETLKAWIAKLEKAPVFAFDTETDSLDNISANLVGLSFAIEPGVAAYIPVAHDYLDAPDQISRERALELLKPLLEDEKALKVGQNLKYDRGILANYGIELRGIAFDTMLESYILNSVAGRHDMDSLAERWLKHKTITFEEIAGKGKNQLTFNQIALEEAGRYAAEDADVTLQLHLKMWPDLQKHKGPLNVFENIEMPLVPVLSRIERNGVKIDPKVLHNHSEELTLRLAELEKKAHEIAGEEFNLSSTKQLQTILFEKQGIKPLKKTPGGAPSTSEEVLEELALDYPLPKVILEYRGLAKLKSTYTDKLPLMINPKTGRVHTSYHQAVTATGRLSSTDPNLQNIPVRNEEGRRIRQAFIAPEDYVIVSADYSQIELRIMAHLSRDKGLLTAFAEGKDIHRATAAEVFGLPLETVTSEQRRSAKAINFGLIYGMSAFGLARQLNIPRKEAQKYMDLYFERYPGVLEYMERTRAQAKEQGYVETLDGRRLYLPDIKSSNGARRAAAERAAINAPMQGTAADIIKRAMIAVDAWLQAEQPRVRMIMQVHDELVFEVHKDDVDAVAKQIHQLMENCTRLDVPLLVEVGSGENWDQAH
T2 sequence (P00582 324-928): as above

Structure (SMILES): Nc1ncnc2c1ncn2[C@@H]1O[C@H](CO)[C@@H](OP(=O)(O)O)[C@H]1O [Ap]
- Template 1 (N = A) Measured Value (T7 RNA polymerase [1]): 0.92
- Template 3 (N = X) Measured Value (T7 RNA polymerase [1]): 1.05

Structure (SMILES): Nc1cc[nH]c(=O)n1 [C, cytosine]
- incorporation in transcription opposite G (FIG. 10) (T7 RNA polymerase [2]): only C was incorporated
- incorporation to the complementary strand X (primer extension, FIG. 6) (Klenow fragment [3]; [6]): incorporated
- incorporated into complementary strand of X (Klenow fragment [4]): 9.5%

Structure (SMILES): Nc1ccn([C@@H]2O[C@H](CO)[C@@H](OP(=O)(O)O)[C@H]2O)c(=O)n1 [Cp]
- Template 1 (N = A) Measured Value (T7 RNA polymerase [1]): 0.78
- Template 3 (N = X) Measured Value (T7 RNA polymerase [1]): 0.94

Structure (SMILES): Nc1nc2c(ncn2[C@@H]2O[C@H](CO)[C@@H](OP(=O)(O)O)[C@H]2O)c(=O)[nH]1 [Gp]
- Template 1 (N = A) Measured Value (T7 RNA polymerase [1]): 4
- Template 3 (N = X) Measured Value (T7 RNA polymerase [1]): 4

Structure (SMILES): Cc1c[nH]c(=O)[nH]c1=O [T, thymine]
- incorporation to the complementary strand X (primer extension, FIG. 6) (Klenow fragment [3]; [6]): incorporated
- incorporated into complementary strand of X (Klenow fragment [4]): 13%

Structure (SMILES): O=c1cc[nH]c(=O)[nH]1 [U]
- incorporation into the complementary strand of A in transcription (FIG. 10) (T7 RNA polymerase [2]): incorporated
- incorporation to X in transcription (FIG. 10) (T7 RNA polymerase [2]): Trace amount
- incorporation in transcription reaction in the presence of rNTP (T7 RNA polymerase [1]; template 3 (N=X)): trace amount

Structure (SMILES): O=c1ccn([C@@H]2O[C@H](CO)[C@@H](OP(=O)(O)O)[C@H]2O)c(=O)[nH]1 [Up]
- Template 1 (N = A) Measured Value (T7 RNA polymerase [1]): 0.98
- Template 3 (N = X) Measured Value (T7 RNA polymerase [1]): 0.08

Structure (SMILES): O=c1cccc[nH]1 [Y, pyridine-2-one]
- incorporation into the complementary strand of A in transcription (FIG. 10) (T7 RNA polymerase [2]): incorporated
- incorporation in transcription opposite G (FIG. 10) (T7 RNA polymerase [2]): almost no production
- incorporation to X in transcription (FIG. 10) (T7 RNA polymerase [2]): selective incorporation
- incorporation in transcription reaction in the presence of rNTP (T7 RNA polymerase [1]; template 1 (N=A)): no incorporation
- incorporation in transcription reaction in the presence of rNTP (T7 RNA polymerase [1]; template 3 (N=X)): almost selectively incorporated
- incorporation into the complementary strand of the second X in the two X (Klenow fragment [3]; another base between two X on the template, primer 3, dNTP 150 μM, 60 minutes (FIG. 9)): only Y was incorporated
- incorporation into complementary strands (primer extension, FIG. 6) (Klenow fragment [3]; primer 1 0.5 μM, template 1 and 3 1 μM, dNTP 150 μM, 30 minutes): incorporated into complementary strands of A, G and X
- incorporated into complementary strand of A (Klenow fragment [4]; template 1 2 μM): 78%
- incorporated into complementary strand of G (Klenow fragment [4]; template 2 2 μM): 48%
- incorporated into complementary strand of X (Klenow fragment [4]): 42% and 41%

Structure (SMILES): Nc1ccn([C@H]2C[C@H](O)[C@@H](COP(=O)(O)OP(=O)(O)OP(=O)(O)O)O2)c(=O)n1 [dCTP]
- rate of incorporation on dx2 (Klenow fragment (exo+)): 22%

Structure (SMILES): O=c1[nH]cccc1[C@H]1C[C@H](O)[C@@H](COP(=O)(O)OP(=O)(O)OP(=O)(O)O)O1 [dYTP, 3-(2′-deoxy-5′-O-triphosphoryl-β-D-ribofuranosyl) pyridine-2-one]
- rate of incorporation on dx2 (Klenow fragment (exo+)): 40%
- rate of incorporation on dx (Klenow fragment (exo+); template N = X, 37° C.): 21%
- inhibition of incorporation of [α-32P] TTP into X by dYTP (Klenow fragment [5]; dYTP added at almost equivalent level of [α-32P] TTP, 30 minutes): 50%
- inhibition of incorporation of [α-32P] TTP into the complementary strand of A (Klenow fragment [5]; template 1, dYTP 0-1000 μM): did not inhibit
- inhibition of incorporation of [α-32P] CTP into the complementary strand of G (Klenow fragment [5]; template 2, dYTP 0-1000 μM): did not inhibit
